Experiments:
rat mGluR5 = target: T1, rat mGluR5 (Rattus norvegicus, UniProt P31424); assay: rat mGluR5 receptor binding ([3H]-M-MPEP, rat cerebro-cortical membranes); details: for Ki: rat cerebro-cortical membranes, [3H]-M-MPEP 2 nM; for binding affinity to rat mGlu5 receptors: statement in words
T1 construct: Rat cerebro-cortical membrane preparation was used; from tissue; host or cells: rat cerebral cortex membranes
Protocol: (§1) MGluR5 Receptor Binding Tests
(§2) MGluR5 receptor binding was determined according to Gasparini et al. (Bioorg. Med. Chem. Lett. 2000, 12:407-409) with modifications. Rat cerebro-cortical membrane preparation was used to determine the binding characteristics of reference compounds and novel compounds to the rat mGluR5. The A18 cell line expressing hmGluR5a (purchased from Euroscreen) was used to determine binding characteristics of the chemical compounds to the human mGluR5a receptor. [3H]-M-MPEP (2 nM) was used as a radioligand. The nonspecific binding was determined in the presence of 10 μM M-MPEP.

human mGluR5a receptor = target: T2, human mGluR5a receptor (Homo sapiens, UniProt P41594); assay: human mGluR5a receptor binding ([3H]-M-MPEP, A18 cell line expressing hmGluR5a); details: for Ki: A18 cell line expressing hmGluR5a, [3H]-M-MPEP 2 nM; for binding affinity to human mGlu5 receptors: statement in words
T2 construct: host or cells: A18 cell line
T2 sequence (P41594 21-1180 isoform P41594-2 limits assumed): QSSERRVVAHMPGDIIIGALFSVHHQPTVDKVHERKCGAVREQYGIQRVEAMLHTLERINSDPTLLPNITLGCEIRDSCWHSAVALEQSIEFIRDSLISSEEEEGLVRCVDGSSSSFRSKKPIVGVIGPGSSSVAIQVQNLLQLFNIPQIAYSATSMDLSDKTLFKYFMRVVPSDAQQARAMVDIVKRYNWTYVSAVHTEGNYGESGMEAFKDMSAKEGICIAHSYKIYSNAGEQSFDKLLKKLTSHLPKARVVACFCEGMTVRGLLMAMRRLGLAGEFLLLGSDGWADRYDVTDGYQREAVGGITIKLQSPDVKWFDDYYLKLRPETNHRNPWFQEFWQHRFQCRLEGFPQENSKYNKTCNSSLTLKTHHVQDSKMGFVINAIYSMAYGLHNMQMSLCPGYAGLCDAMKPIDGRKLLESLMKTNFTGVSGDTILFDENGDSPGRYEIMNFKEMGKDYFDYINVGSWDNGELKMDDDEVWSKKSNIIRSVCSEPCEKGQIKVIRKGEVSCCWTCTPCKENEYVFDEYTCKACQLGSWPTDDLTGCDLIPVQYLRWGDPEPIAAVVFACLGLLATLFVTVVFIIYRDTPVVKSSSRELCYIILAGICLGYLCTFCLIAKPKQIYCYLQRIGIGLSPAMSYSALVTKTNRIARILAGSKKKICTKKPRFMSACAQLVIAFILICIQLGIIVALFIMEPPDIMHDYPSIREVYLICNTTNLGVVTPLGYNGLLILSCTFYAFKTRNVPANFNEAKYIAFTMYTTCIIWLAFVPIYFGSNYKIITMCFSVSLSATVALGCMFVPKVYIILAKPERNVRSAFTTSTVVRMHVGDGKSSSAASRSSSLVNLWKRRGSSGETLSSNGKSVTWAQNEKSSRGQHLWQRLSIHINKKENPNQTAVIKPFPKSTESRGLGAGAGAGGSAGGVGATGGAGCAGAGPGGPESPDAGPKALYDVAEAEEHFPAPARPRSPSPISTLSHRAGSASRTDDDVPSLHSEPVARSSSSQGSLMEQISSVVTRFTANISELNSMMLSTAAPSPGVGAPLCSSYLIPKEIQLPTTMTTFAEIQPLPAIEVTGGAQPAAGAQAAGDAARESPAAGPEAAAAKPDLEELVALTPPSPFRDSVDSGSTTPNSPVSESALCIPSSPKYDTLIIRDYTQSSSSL
Protocol: as §1, §2

male Wistar rats = assay: Anxiolytic activity in the punished drinking test (Vogel); assay type: in vivo, rat; details: for Punished drinking, MED: oral, 60 min before test, MED = dose increasing accepted shocks above 35, male Wistar rats; for anxiolytic activity after oral administration: statement in words
From the text: Measurement of Anxiolytic Activity in the Punished Drinking Test
The method described by Vogel et al. (Psychopharmacology (Berl.) 1971, 21:1-7) was used with modifications. On the day preceding the test day male Wistar rats (180-220 g) were placed into the test chambers which were equipped with a metal water spout mounted on the wall of the chamber and a metal grid floor for delivering electric shocks. During a 5-min adaptation period the animals had free access to the drinking spout. Following the adaptation session rats were deprived of drinking water for 24 hours prior to the test. On the day of the measurement, the animals were orally treated with the test compounds and 60 minutes later were placed into the test chambers where they had access to the drinking water. In the test session drinking was punished by delivering electric shocks (1 mA, 1 sec) through the drinking spout following every 10 licks during a 270 second punishment period. Number of licks and shocks delivered were recorded and stored in a computer. Anxiolytic activity is reflected by the increased number of accepted shocks. Minimum effective doses (MED, defined as the dose which increased the number of accepted shocks above 35) were determined and used to characterize the anxiolytic potency of the tested compounds.

T1 sequence (P31424 21-1203): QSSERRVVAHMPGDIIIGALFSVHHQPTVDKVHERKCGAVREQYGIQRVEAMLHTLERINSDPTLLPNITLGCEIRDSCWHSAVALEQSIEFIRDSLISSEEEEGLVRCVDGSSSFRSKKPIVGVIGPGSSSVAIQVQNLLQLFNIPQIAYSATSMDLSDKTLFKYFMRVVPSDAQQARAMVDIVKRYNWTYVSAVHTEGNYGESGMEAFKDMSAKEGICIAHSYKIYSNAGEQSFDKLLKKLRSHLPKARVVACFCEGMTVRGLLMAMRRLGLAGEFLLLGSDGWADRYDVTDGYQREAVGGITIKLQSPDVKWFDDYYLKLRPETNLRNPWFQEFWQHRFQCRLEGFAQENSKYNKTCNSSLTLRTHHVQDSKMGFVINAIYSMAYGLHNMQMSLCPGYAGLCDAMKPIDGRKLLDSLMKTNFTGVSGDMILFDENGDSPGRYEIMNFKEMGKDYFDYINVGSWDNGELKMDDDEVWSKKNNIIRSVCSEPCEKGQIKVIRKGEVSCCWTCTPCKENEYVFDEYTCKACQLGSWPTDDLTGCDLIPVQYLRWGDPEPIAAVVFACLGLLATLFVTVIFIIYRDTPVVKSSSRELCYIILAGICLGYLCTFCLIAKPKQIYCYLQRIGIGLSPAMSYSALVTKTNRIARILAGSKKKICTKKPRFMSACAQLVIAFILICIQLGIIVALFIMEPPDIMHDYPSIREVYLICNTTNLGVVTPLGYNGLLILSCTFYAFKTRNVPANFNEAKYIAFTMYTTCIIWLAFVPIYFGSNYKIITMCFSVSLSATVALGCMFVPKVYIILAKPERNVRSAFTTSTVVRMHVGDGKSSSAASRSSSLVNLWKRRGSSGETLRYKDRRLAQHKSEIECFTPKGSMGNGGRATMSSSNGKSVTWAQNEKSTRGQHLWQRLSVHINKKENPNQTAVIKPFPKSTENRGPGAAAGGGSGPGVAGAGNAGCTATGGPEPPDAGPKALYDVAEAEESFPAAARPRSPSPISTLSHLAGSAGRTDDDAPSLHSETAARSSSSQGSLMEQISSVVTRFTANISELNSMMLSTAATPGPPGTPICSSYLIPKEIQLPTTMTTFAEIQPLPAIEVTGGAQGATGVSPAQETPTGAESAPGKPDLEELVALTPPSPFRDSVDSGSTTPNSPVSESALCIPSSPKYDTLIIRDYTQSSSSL

Row | SMILES | Ki (rat mGluR5) | binding affinity to rat mGlu5 receptors (rat mGluR5) | Ki (human mGluR5a receptor) | binding affinity to human mGlu5 receptors (human mGluR5a receptor) | Punished drinking, MED (male Wistar rats) | anxiolytic activity after oral administration (male Wistar rats)
1 | N#Cc1cc(F)cc(S(=O)(=O)c2sc3ncc(N)cc3c2-c2cccc(Cl)c2)c1 [Compound 2, 5-Amino-2-(3-cyano-5-fluoro-benzenesulfonyl)-3-(3-chlorophenyl)-thieno[2,3-b]-pyridine] | 7.2 nM | high affinity | 8.7 nM | high affinity | 5 mg/kg | remarkable anxiolytic activity
2 | N#Cc1cc(F)cc(S(=O)(=O)c2sc3ncc(N)cc3c2-c2cccc(F)c2)c1 [Compound 1, 5-Amino-2-(3-cyano-5-fluoro-benzenesulfonyl)-3-(3-fluorophenyl)-thieno[2,3-b]-pyridine] | 1.9 nM | high affinity | 3.2 nM | high affinity | 3 mg/kg | remarkable anxiolytic activity

Source: patent US8263773B2, “Thieno [2,3-b] pyridine compounds with mGluR activity” (Richter Gedeon Nyrt., priority 2008, dated 2012)
